For the test, the species on record is Rattus norvegicus. Description: Evaluated for the efficacy in stimulating cAMP synthesis by beta-1-adrenoceptor in rat cerebral cortex. The format is functional.

The text below walks through data of ChEMBL document CHEMBL1122882, “3,4-O-diacetylisoproterenol. Preparation, structure proof, and beta-receptor effect” (1985).

As to `CC(=O)Oc1ccc(C(Cl)CNC(C)C)cc1OC(C)=O` (configuration not stated), the Efficacy was 1. For `CC(=O)Oc1ccc(C(O)CNC(C)C)cc1OC(C)=O` (configuration not stated) [DIACETYLISOPROTERENOL] the value was 1.
